Reference: patent US20250325573A1, “Anti-Cancer Saccharide-Linked Dithiocarbamate Compounds” (Anglia Ruskin University Higher Education Corporation, priority 2022, published 2025)

Experiments:
Type in all cases: cell-based
MDA-MB-231 = test: MTT cytotoxicity assay, breast cancer cell line MDA-MB-231
[1] = test system: lung cancer cell line A549; test: Microscopy images of lung cancer cells A549; settings: for cytotoxicity against lung cancer cells (microscopy): with and without copper(II) 10 μM, boosted by adding copper
[2] = test system: breast cancer cell line MDA-MB-231; test: Microscopy images of breast cancer cells MDA-MB-231; settings: for concentration showing apoptotic signs (shrinkage, cell detachment, membrane blebbing): 24 hours of incubation
H630 R10 = test: MTT cytotoxicity assay, colorectal cancer cell line H630 R10 (resistant to 5FU 10 μM); settings: 72 h
Experimental: (§1) The H630 WT (passage 12-21) and H630 R10 (passage 4-13) cells were seeded in 96-well plates at seeding density of 1×10^4 cells/well in Dulbecco's modified Eagle's medium (DMEM) with 10% FBS, 1 mM sodium pyruvate, 2 mM L-glutamine and 0.1 mM non-essential amino acids. Cells were incubated at 37° C., 5% CO2 and 95% relative humidity. Cells were constantly exposed to different concentrations of the tested compound in combination with 10 μM of CuCl2 for 72 h and then subjected to a standard 3-(4,5-Dimethylthiazol-2-yl)-2,5-Diphenyltetrazolium bromide (MTT) assay. The experiments were carried out in triplicates and the IC50 values were calculated (see FIG. 2).
5FU was purchased from Sigma Aldrich, Dorset, UK.

H630 WT = test: MTT cytotoxicity assay, colorectal cancer cell line H630 WT; settings: 72 h
Experimental: as §1

A549 = test: MTT cytotoxicity assay, lung cancer cell line A549
[3] = test system: colorectal cancer cell line H630 WT; test: Microscopy images of colorectal cancer cells H630 WT; settings: 500 μM, copper(II) 10 μM, 72 hours
[4] = comparative agent as listed, no added metal named
[5] = Homo sapiens, NCI-H630, with Cu (10 μM CuCl2)
[6] = Homo sapiens, MDA-MB-231, 72 h, with Cu (10 μM CuCl2)
[7] = Homo sapiens, MDA-MB-231, 72 h, without copper(II)
[8] = Homo sapiens, A549, 72 h, with Cu (10 μM CuCl2)
[9] = Homo sapiens, NCI-H630, comparative agent as listed, no added metal named

Structure (SMILES): CCN(CC)C(=S)SC1O[C@H](CO)[C@@H](O)[C@H](O)[C@H]1O (stereo in doubt) [Ga-DDC, Galactosyl diethyldithiocarbamate]
- IC50 (MDA-MB-231; with Cu (10 μM CuCl2), 72 h): 17.7 ± 8.2 µM

Structure (SMILES): O=CC[C@@H](O)[C@H](O)[C@H](O)CO [2-deoxy-glucose, reference compound]
- cytotoxic effect (microscopy) ([1]; 1 mM, with or without copper(II), 72 h): no cytotoxic effect
- concentration showing slight toxicity effect (cells started to detach) ([1]; without copper(II), 24 hours): 8 mM
- features of apoptosis ([2]; 1000 μM, with copper(II) 10 μM, 24 hours): no features of apoptosis
- concentration showing slight toxicity effect (cells started to detach) ([2]; without copper(II), 24 hours): 8 mM

Structure (SMILES): CCN(CC)C(=S)[S-].CCN(CC)C(=S)[S-].[Cu+2] [(DDC)2Cu, Cu(II) bis(N,N-diethyldithiocarbamate) complex, reference compound]
- IC50 (H630 R10; [4]): 4.9 ± 1.6 µM
- IC50 (H630 WT; [4]): 5.9 ± 1.1 µM
- IC50 (A549; comparative agent as listed, no added metal named, 72 h): 3.6 ± 0.7 µM

Structure (SMILES): CCN(CC)C(=S)SC1OC(CO)C(O)C(O)C1NC(C)=O (stereo not shown) [AG-DDC, 2-N-acetyl-glycosylamine diethyldithiocarbamate]
- IC50 (H630 WT; [5]): 5.8 ± 1.2 µM

Structure (SMILES): CCN(CC)C(=S)SC1CC(O)C(O)C(CO)O1 (stereo not shown) [DG-DDC, 2-Deoxy-glycosyl diethyldithiocarbamate]
- observation in cells (microscopy) [3]: Cu(II) bis(N,N-diethyldithiocarbamate) complex crystals
- IC50 (H630 R10; [5]): 5.3 ± 0.9 µM
- IC50 (H630 WT; [5]): 5.2 ± 1.7 µM
- cytotoxicity against lung cancer cells (microscopy) ([1]; 72 h): cytotoxic
- toxic effect compared to glycosyl diethyldithiocarbamate at similar concentrations ([1]; without copper(II), 24 hours): more toxic effect
- IC50 (MDA-MB-231; [6]): 3.62 ± 0.22 µM
- IC50 (MDA-MB-231; [7]): 2060 ± 54.7 µM
- IC50 (A549; [8]): 2.79 ± 0.25 µM
- IC50 (A549; Homo sapiens, A549, 72 h, with Zn (ZnCl2 10 μM)): 49.6 ± 18.6 µM
- concentration showing apoptotic signs (shrinkage, cell detachment, membrane blebbing) ([2]; with copper(II) 10 μM): 25 µM
- toxic effect compared to glycosyl diethyldithiocarbamate at similar concentrations ([2]; without copper(II), 24 hours): more toxic effect

Structure (SMILES): CCN(CC)C(=S)SSC(=S)N(CC)CC [DS, disulfiram, reference compound]
- IC50 (MDA-MB-231; [7]): > 8000 µM

Structure (SMILES): O=c1[nH]cc(F)c(=O)[nH]1 [Example 5FU, fluorouracil, reference compound]
- IC50 (H630 R10; [9]): 462 ± 8 µM
- IC50 (H630 WT; [9]): 4.6 ± 1.6 µM

Structure (SMILES): CCN(CC)C(=S)SC1O[C@H](CO)[C@@H](O)[C@H](O)[C@H]1O (stereo partly shown) [G-DDC, Glycosyl diethyldithiocarbamate]
- IC50 (H630 WT; [5]): 127 ± 13.2 µM
- cytotoxicity against lung cancer cells (microscopy) ([1]; 72 h): cytotoxic
- concentration showing signs of apoptosis (shrinkage, cell detachment) ([1]; without copper(II), 24 hours): 8 mM
- concentration showing slight toxicity effect (cells started to detach) ([1]; without copper(II), 24 hours): 4 mM
- IC50 (MDA-MB-231; [7]): 2180 ± 356 µM
- IC50 (MDA-MB-231; with Cu (10 μM CuCl2), 72 h): 348 ± 44.7 µM
- IC50 (A549; [8]): 95.9 ± 21.3 µM
- concentration showing apoptotic signs (shrinkage, cell detachment, membrane blebbing) ([2]; with copper(II) 10 μM): 250 µM
- concentration showing signs of apoptosis (shrinkage, cell detachment) ([2]; without copper(II), 24 hours): 8 mM
- concentration showing slight toxicity effect (cells started to detach) ([2]; without copper(II), 24 hours): 4 mM

Structure (SMILES): CCN(CC)C(=S)SC1O[C@H](CO)[C@@H](O[C@@H]2O[C@H](CO)[C@H](O)[C@H](O)[C@H]2O)[C@H](O)[C@H]1O (stereo partly shown) [La-DDC, Lactosyl diethyldithiocarbamate]
- IC50 (MDA-MB-231; [6]): 89.7 ± 12.6 µM

Structure (SMILES): CCN(CC)C(=S)SC1O[C@H](CO)[C@@H](O)[C@H](O)[C@@H]1O (stereo partly shown) [Ma-DDC, Mannosyl diethyldithiocarbamate]
- IC50 (MDA-MB-231; [6]): 78.6 ± 12.6 µM

Structure (SMILES): CCN(CC)C(=S)SC1O[C@H](COC(C)=O)[C@@H](OC(C)=O)[C@H](OC(C)=O)[C@H]1OC(C)=O (stereo partly drawn) [Tetra-DDC, β-D-glucopyranose, 1-thio-, 2,3,4,6-tetraacetate 1-(N,N-diethylcarbamodithioate)]
- IC50 (A549; [8]): 53.4 ± 11.5 µM

Structure (SMILES): CCN(CC)C(=S)SC1OC[C@@H](O)[C@H](O)[C@H]1O (stereo partly shown) [XY-DDC, Xylosyl diethyldithiocarbamate]
- IC50 (H630 WT; [5]): 6.9 ± 2.6 µM
